Measurements taken from PMC7937589 (Drugs in R&D, 2020).

Columns and labels:
solid tumors = assay: Antitumor activity, overall response by RECIST v1.1; type: in vivo, human; settings: for Partial response rate: across all treatment cycles
[1] = test system: Japanese patients with solid tumors; type: in vivo, human
[2] = Plasma and urine pharmacokinetics of ASP3026; type: in vivo, human; settings: for Tmax: human, plasma, oral
[3] = test system: advanced solid malignancies; settings: US study, patients with ALK-positive tumors, especially NSCLC; cited from earlier work
[4] = Japanese patients, oral once daily

## COc1cc(N2CCC(N3CCN(C)CC3)CC2)ccc1Nc1ncnc(Nc2ccccc2S(=O)(=O)C(C)C)n1 [ASP3026]
Solid tumors; Cycle 1, 200 mg daily, escalation (n = 3) and expansion (n = 6) cohorts
  Partial response: none of the patients
Solid tumors; Cycle 1, 200 mg daily, escalation cohort (n = 3)
  Patients with stable disease: three
Solid tumors; Cycle 1, 200 mg daily, expansion cohort (n = 6)
  Patients with stable disease: three
Solid tumors; 75-mg dose group (1/3)
  Partial response rate: 33.3%
Solid tumors; 125-mg dose group (1/4)
  Partial response rate: 25.0%
[1]; 325 mg daily, Cycle 1, six patients evaluated
  Patients with dose-limiting toxicity (DLT): Three
[1]; [4]
  Maximum tolerated dose (MTD): 200 mg
  Recommended phase II dose (RP2D): 200 mg
[1]; all cohorts (1/29)
  Total incidence of Grade 4 TEAEs: 3.4%
  Total incidence of Grade 5 TEAEs: 3.4%
[1]; all cohorts (4/29)
  Patients reporting eye disorders: 13.8%
[1]; all cohorts (6/29)
  Total incidence of Grade 1 TEAEs: 20.7%
[1]; all cohorts (8/29)
  Total incidence of Grade 2 TEAEs: 27.6%
[1]; all cohorts (13/29)
  Total incidence of Grade 3 TEAEs: 44.8%
[1]; all cohorts (24/29)
  Overall incidence of drug-related AEs: 82.8%
[1]; all treatment groups (29/29)
  Incidence of TEAEs: 100%
[1]; daily dose from 25 mg to 200 mg, Cycle 1
  Dose-limiting toxicity (DLT): No DLT was observed
[2]; 25 mg to 325 mg, Day 1 and Day 28, escalation cohort
  Dose dependence of median Cmax and AUC24h: increased in a dose-dependent manner
[2]; Mean tmax across the dose groups, Day 1
  Tmax: 2.12 to 4.52 h
[2]; Mean tmax across the dose groups, Day 28
  Tmax: 2.48 to 3.75 h
[2]; Median tmax across the dose groups, Day 1
  Tmax: 1.97 to 3.97 h
[2]; Median tmax across the dose groups, Day 28
  Tmax: 2.48 to 3 h
[2]; once daily oral dosing
  Steady state achieved: ≤ 8 days
[3]
  Patients achieving partial response (PR): Half of the patients
